Measurements from patent publication US6485722B1, “Method for selective engraftment of drug-resistant hematopoietic stem cells” (Regents of the University of Minnesota, priority 1996, dated 2002).

Experiments:
[1] = test system: stem cells expressing a MTX-resistant DHFR; assay: Competitive repopulation with 50/50 mixture of normal and DHFR transgenic marrow, Southern blot of marrow DNA; format: in vivo, FVB/N mice
Protocol: (§1) Male marrow is used as competitor so that Y chromosome sequences can be used as a quantitative signal for the presence of competitor-derived material at the time of analysis, while the DHFR transgene can be used as a quantitative signal for presence of DHFR-transgenic-derived material.
(§2) Animals in each of the three groups were administered either PBS or MTX at an increasing dose schedule culminating at 4 mg/kg/day. MTX administration was continued out to 60 days post-transplant. […] After 60 days, MTX administration is stopped. A small number of animals were sacrificed at this time to collect marrow samples for subsequent analysis, but most of the animals were maintained for an additional 2 months. At 4 months post-transplant, all surviving animals were sacrificed and bone marrow harvested. Each marrow sample collected was resuspended and then injected into 5 lethally-irradiated secondary female FVB/N recipients (2×10^6 donor cells per secondary recipient), saving the leftover marrow for subsequent molecular analysis. Secondary recipients were maintained for an additional 4 months before sacrificing and harvesting marrow samples.

[2] = MTX toxicity in irradiated mice transplanted with normal (non-transgenic) FVB/N marrow
Protocol: as §1, §2

## CN(Cc1cnc2nc(N)nc(N)c2n1)c1ccc(C(=O)N[C@@H](CCC(=O)O)C(=O)O)cc1 [MTX, methotrexate]
[1]; animals transplanted with transgenic marrow, MTX rather than PBS
  DHFR transgene copy number in primary recipients: substantial increase
[1]; primary transplant 50% normal / 50% DHFR transgenic marrow, MTX up to 4 mg/kg/day for 60 days, secondary recipients analysed 4 months after secondary transplant
  secondary recipients showing a substantial contribution of transgenic marrow: 5 out of 5
[2]; 0.25 mg/kg/day for 1-4 days, 0.5 mg/kg/day next four days, then 1.0 mg/kg/day, recipients of non-transgenic marrow
  toxicity of low dose MTX: caused hematopoietic toxicity
[2]; irradiated (900 rads) mice transplanted with 10^7 normal FVB/N marrow cells, MTX increasing dose schedule culminating at 4 mg/kg/day, all animals
  time at which animals succumb to MTX induced toxicity: 15-30 days post-transplant
[2]; mouse, in vivo, 4 mg/kg/day
  toxicity of high dose MTX: causes not only hematopoietic toxicity but gastrointestinal toxicity as well
